Test results as given in patent US4895589A, “Heterocyclic compounds” (Imperial Chemical Industries PLC, priority 1985, dated 1990).
Read-outs that look alike come from different tables or passages of the source.

What was measured:
Lettuce = conditions: LT, 4000 ppm, 2-3 weeks
Description: (§6) The compounds were tested for plant growth regulator activity against up to tweleve plant species for various growth effects relevant to plant growth regulation.
(§7) After spray, the plants were grown in a glasshouse with 25° C. day/22° C. night temperatures and supplementary lighting was supplied when necessary (from mercury vapour lamps), to provide a 16 hour photoperiod. The exception to this were the temperate cereals, wheat and barley, which were grown in 16° C. day 13° C. night temperatures
(§8) After 2-3 weeks in the glasshouse, depending on the time of year, the plants were visually assessed for morphological characteristics. Formulations blanks were used as controls to assess the Plants.

Rice [1] = assay: Whole Plant Screen (2), rice; type: in vivo, Rice (Ishikari); conditions: RC, 4000 ppm
Description: (§1) After 2-6 weeks in the glasshouse, depending on the time of year, the plants were visually assessed for morphological characteristics. Formulation blanks were used as controls to assess the plants.
(§2) Compound numbers 1, 5 and 7 (of the present invention) were tested against compounds A, B, C and D (compound Nos. 12, 2, 24 and 50 of Table 1 EP No. 0052424) on whole plant screen (2). The compounds were tested of plant growth regulator activity against five species and for various growth effects relevant to plant growth regulation. The structures are set out in FIG. 1.
(§3) The plant species used in this screen are presented in Table XII with the leaf stage at which they were sprayed Each chemical was applied at 4000 ppm (4 kg/ha in a 1000 l/ha field volume) using a tracksprayer and a SS8004E (Teejet) nozzle. […]

Vines = conditions: VN, 4000 ppm, 2-3 weeks
Description: as §6, §7, §8

Wheat [2] = conditions: WW, 4000 ppm, 2-3 weeks
Agrostis tenius = conditions: AT, 4000 ppm, 2-3 weeks
Description: as §6, §7, §8

Apples = assay: Intermediate Retardant Test, apples; type: in vivo, Apples (Red Delicious); conditions: 672 h, ~28 days, read-out: Percentage Reduction in Height of Apples (Compared to formulation blank)
Description: (§4) Three species are involved in this test RICE, SPRING-BARLEY and APPLES. The variety and growth stages at spray are outlined in Table VI. Compounds were applied at 1000 ppm and 4000 ppm respectively (1 kg and 4 kg ha^-1 at a field volume of 1000 l/ha^-1) as an overall spray. This gives a foliar and root component in the test, i.e. this test will detect the activity of both root and foliar acting compounds. The rice was grown in 4" `paddy` pots, i.e. the roots and bottom of the stems are immersed in water under conditions corresponding to those in paddy fields. Spring barley and apples were grown in 4" pots. The plants were assessed for height to top-most ligule at approximately 28 days after treatment for spring barley and rice and for height to apex at approximately 28 days after the treatment for apples. In each case the result for the 1000 ppm and 4000 ppm test for each compound is compared to the height of the formulation blank in that test, presented as a percentage reduction in height compared to the formulation blank.
as §4, with “in Table XIV. Compounds were” for “in Table VI. Compounds were”, “that test, and presented as” for “that test, presented as”

Soya = conditions: SY, 4000 ppm, 2-3 weeks
Description: as §6, §7, §8

Wheat [3] = assay: Whole Plant Screen (2), wheat; type: in vivo, Wheat (Timmo); conditions: WW, 4000 ppm
Description: (§5) Compound numbers 12-13, 16-17 and 19-20 were tested on an alternative whole plant screen (2). The compounds were tested for plant growth regulator activity against five species for various growth effects relevant to plant growth regulation.
The plant species used in this screen are presented in Table IV with the leaf stage at which they were sprayed. Each chemical was applied at 4000 ppm (4 kg/ha in a 1000 l/ha field volume) using a tracksprayer and a SS8004E (Teejet) nozzle. […]
After 2-6 weeks in the glasshouse, depending on the time of year, the plants were visually assessed for morphological characteristics. Formulation blanks were used as controls to assess the plants. […]

Rice [4] = assay: Intermediate Retardant Test, rice; type: in vivo, Rice (Ishikari); conditions: Oryza sativa, 672 h, ~28 days, read-out: Percentage Reduction in Height of Rice (Compared to formulation blank)
Description: as §4
as §4, with “in Table XIV. Compounds were” for “in Table VI. Compounds were”, “that test, and presented as” for “that test, presented as”

[5] = tested on: plant species of Whole Plant Screen (1) or (2); assay: Across screen comparison: total retardation relative to paclobutrazol (Whole Plant Screens (1) and (2)); type: in vivo; conditions: for Total Retardation expressed as a percentage of the total retardation caused by paclobutrazol: compounds of Table I, Table X
Source text: The following Example is a general indicative comparison of compounds from EP No. 0052424 with compounds from the preferred class in the present invention. The compounds have not been side-by-side tested on this Example because of the large numbers involved but the retardant activity can be compared using a standard which has been on each test.
The compounds which are compared in this Example have been tested on one of two tests. These are the Whole Plant Screen (1) and Whole Plant Screen (2) the methods for which are described in Examples 17 and 18 respectively.
An across screen comparison between compounds is made by expressing the total retardation (ie. sum of retardation scores recorded for each species tested) caused by the compound as a percentage of the total retardation caused by the standard in that test. The standard chemical gives a measure of the performance of the test and environmental factors. By expressing the test compound activity as a percentage of the standard compound activity these factors can be eliminated . The same standard has been used in every test and this is paclobutrazol a proprietory growth regulator.

Cynosurus cristatus = conditions: CC, 4000 ppm, 2-3 weeks
Spring Barley = assay: Intermediate Retardant Test, spring barley; type: in vivo, Spring Barley (Atem/kym); conditions: Hordeum vulgare, 672 h, ~28 days, read-out: Percentage Reduction in Height of Spring Barley (Compared to formulation blank)
Description: as §4
as §4, with “in Table XIV. Compounds were” for “in Table VI. Compounds were”, “that test, and presented as” for “that test, presented as”

Tomato = conditions: TO, 4000 ppm, 2-3 weeks
Dacrylis glomerata = conditions: DA, 4000 ppm, 2-3 weeks
Description: as §6, §7, §8

Barley [6] = conditions: BR, 4000 ppm, 2-3 weeks
Description: as §6, §7, §8

Maize = assay: Whole Plant Screen (2), maize; type: in vivo, Maize (Earliking); conditions: MZ, 4000 ppm, 2-6 weeks, Table V
Description: as §5
The plant species used in this screen are presented in Table IV with the leaf stage at which they were sprayed. Each chemical was applied at 4000 ppm (4 kg/ha in a 1000 l/ha field volume) using a tracksprayer and a SS8004E (Teejet) nozzle.
After spray the plants were grown in a glasshouse with 25° C. day 22° C. night temperatures and supplementary lighting was supplied when necessary (from mercury vapour lamps), to provide a 16 hour photoperiod. The exception to this were the temperate cereals, wheat and barley which were grown in 16° C. day 13° C. night temperatures.
as §1, §2
The plant species used in this screen are presented in Table XII with the leaf stage at which they were sprayed Each chemical was applied at 4000 ppm (4 kg/ha in a 1000 l/ha field volume) using a tracksprayer and a SS8004E (Teejet) nozzle.
After spray the plants were grown in a glasshouse with 25° C. day/22° C. night temperatures and supplementary lighting was supplied when necessary (from mercury vapour lamps), to provide a 16 hour photoperiod. The exception to this were the temperate cereals, wheat and barley which were grown in 16° C. day/13° C. night temperatures.

Barley [7] = assay: Whole Plant Screen (2), barley; type: in vivo, Barley (Atem); conditions: BR, 4000 ppm, 2-6 weeks, Table V
Description: as §2, §3

Row | SMILES | Retardation score (1-3) with greening (G), apical damage (A), tillering/side shooting (T) (Wheat [2]) | Retardation score (1-3) with greening (G), apical damage (A), tillering/side shooting (T) (Agrostis tenius) | percent reduction in plant height vs formulation blank at 4000 ppm (Apples; Table IX) [%] | Retardation score (1-3) with greening (G), apical damage (A), tillering/side shooting (T) (Soya) | Percent reduction in rice plant height vs formulation blank at 1000 ppm (Rice [4]; Table VII) [%] | Percent reduction in rice plant height vs formulation blank at 4000 ppm (Rice [4]; Table VII) [%] | Total Retardation expressed as a percentage of the total retardation caused by paclobutrazol [5] | Retardation score (1-3) with greening (G), apical damage (A), tillering/side shooting (T) (Cynosurus cristatus) | height reduction vs blank at 1000 ppm (Spring Barley; Table VIII) [%] | height reduction vs blank at 4000 ppm (Spring Barley; Table VIII) [%] | percent reduction in plant height vs formulation blank at 1000 ppm (Apples; Table IX) [%] | further results
1 | CC(C)(C)C#CC(O)(Cn1cncn1)C(C)(C)C (stereo not drawn) [Compound 5, 2,2-dimethyl-3-hydroxy-3-(3,3-dimethyl-but-1-yne-1-yl)-4-(1,2,4-triazol-1-yl)-butane] | 2 (21-60% retardation) | 1 (10-30% retardation) | 31.5 | 2G | 11.4 | 21.2 | 28.1 % of paclobutrazol | 2 (21-60% retardation) | 7 | 22.6 |  | Retardation score (1-3) with greening (G), apical damage (A), tillering/side shooting (T) (Lettuce): 1 (10-30% retardation); T = Tillering or side shooting (Rice [1]; side-by-side, Table XIII): 2 (31-60%); Retardation score (1-3) with greening (G), apical damage (A), tillering/side shooting (T) (Vines): 1GT; percent reduction in plant height vs formulation blank at 1000 ppm (Apples; side-by-side, Table XVII): 2%; percent reduction in plant height vs formulation blank at 4000 ppm (Apples; side-by-side, Table XVII): 24%; G = Greening effect (Wheat [3]; side-by-side, Table XIII): 2 (31-60%); T = Tillering or side shooting (Wheat [3]; side-by-side, Table XIII): 2 (31-60%); Percent reduction in rice plant height vs formulation blank at 1000 ppm (Rice [4]; side-by-side, Table XVI): 10%; Percent reduction in rice plant height vs formulation blank at 4000 ppm (Rice [4]; side-by-side, Table XVI): 10%; range of activity / superiority in comparison with EP 0052424 compounds ([5]; Tables X and XI, across screen comparison): lower range of activity than the rest of the preferred class; height reduction vs blank at 1000 ppm (Spring Barley; side-by-side, Table XV): 9%; height reduction vs blank at 4000 ppm (Spring Barley; side-by-side, Table XV): 11%
2 | CCC(C)CC#CC(O)(Cn1cncn1)C(C)(C)C (stereo not drawn) [Compound 10, 2,2-dimethyl-3-hydroxy-3-(4-methyl-hex-1-yne-1-yl)-4-(1,2,4-triazol-1-yl)-butane] | 2GT | 1 (10-30% retardation) | 27.1 | 2GA | 20.7 | 38.2 | 47.8 % of paclobutrazol | 2 (21-60% retardation) | 20.2 | 72.4 | 9.8 | Retardation score (1-3) with greening (G), apical damage (A), tillering/side shooting (T) (Tomato): 1G; Retardation score (1-3) with greening (G), apical damage (A), tillering/side shooting (T) (Dacrylis glomerata): 1 (10-30% retardation); Retardation score (1-3) with greening (G), apical damage (A), tillering/side shooting (T) (Barley [6]): 2GT
3 | CC(C)(C)C(O)(C#CCCCCl)Cn1cncn1 (stereo not drawn) [Compound 13] |  |  | 9.2 |  | 6 | 5.2 | 83.3 % of paclobutrazol |  | 17 | 41 | 2.8 | I = Interligular or internodal length reduction (Rice [1]; 2-6 weeks, Table V): 2 (31-60%); R = Retardation (Rice [1]; 2-6 weeks, Table V): 2 (31-60%); T = Tillering or side shooting (Rice [1]; 2-6 weeks, Table V): 1 (10-30%); I = Interligular or internodal length reduction (Maize): 1 (10-30%); R = Retardation (Maize): 1 (10-30%); I = Interligular or internodal length reduction (Barley [7]): 2 (31-60%); G = Greening effect (Wheat [3]; 2-6 weeks, Table V): 1 (10-30%); T = Tillering or side shooting (Wheat [3]; 2-6 weeks, Table V): 1 (10-30%)
